Patent US7947726B2, “Non-steroidal ligands for the glucocorticoid receptor, and compositions thereof” (The Regents of the University of California, priority 2002, dated 2011)

Target: T1, PR (Homo sapiens, UniProt P06401)
T1 sequence (P06401 1-933): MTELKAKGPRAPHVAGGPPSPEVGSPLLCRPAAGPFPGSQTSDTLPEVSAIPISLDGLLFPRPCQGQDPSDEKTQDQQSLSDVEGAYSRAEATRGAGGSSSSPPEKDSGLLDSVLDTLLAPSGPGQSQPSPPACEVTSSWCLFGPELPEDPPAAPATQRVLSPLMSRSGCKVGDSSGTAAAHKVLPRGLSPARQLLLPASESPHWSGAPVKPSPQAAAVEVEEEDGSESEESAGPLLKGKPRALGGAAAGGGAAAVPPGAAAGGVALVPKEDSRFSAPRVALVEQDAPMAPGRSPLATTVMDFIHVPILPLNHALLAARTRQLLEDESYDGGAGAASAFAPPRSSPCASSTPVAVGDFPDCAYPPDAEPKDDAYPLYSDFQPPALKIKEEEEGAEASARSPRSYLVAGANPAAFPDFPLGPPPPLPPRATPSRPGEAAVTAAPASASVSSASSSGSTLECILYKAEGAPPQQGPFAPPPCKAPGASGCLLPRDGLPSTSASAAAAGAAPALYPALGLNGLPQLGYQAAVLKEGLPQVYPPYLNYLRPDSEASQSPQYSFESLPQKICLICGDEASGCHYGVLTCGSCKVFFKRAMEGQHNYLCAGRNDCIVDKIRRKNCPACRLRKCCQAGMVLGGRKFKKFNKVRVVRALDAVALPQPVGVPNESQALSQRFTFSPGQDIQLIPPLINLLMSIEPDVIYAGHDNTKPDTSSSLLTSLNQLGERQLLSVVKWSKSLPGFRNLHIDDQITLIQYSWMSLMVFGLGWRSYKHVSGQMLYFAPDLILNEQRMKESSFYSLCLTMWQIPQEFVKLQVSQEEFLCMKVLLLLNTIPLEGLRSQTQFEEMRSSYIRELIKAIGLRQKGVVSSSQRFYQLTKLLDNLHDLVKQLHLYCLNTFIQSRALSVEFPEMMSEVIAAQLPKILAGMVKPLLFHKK
Assay: PR activation (max fold activation)
Format: cell-based
Conditions: Table 4

PR max fold activation: 255 ± 72
Compound: CC(=O)[C@H]1CC[C@H]2[C@@H]3CCC4=CC(=O)CC[C@]4(C)[C@H]3CC[C@]12C [Progesterone, reference compound]
